The values below come from publication PMC8866981 (Journal of Experimental Pharmacology, 2021).

For one series, the system named is HIV-1IIIB. The series is classed as cell-based, Human immunodeficiency virus type 1. The settings on record: HIV-1IIIB infected MT-4 cells, 5 days, mean ± S.E.M (n=3).
The subject of series [1] is Human T-lymphocytic MT-4 cells. The experiment in a line: Cytotoxicity test, MTT colorimetric assay. Format: cell-based. The note with it: 5 days, percentage inhibition of cell growth, mean ± S.E.M (n=3). A general note: Tetrazolium dyes change colour on reduction, which living cells bring about.

In the case of `Cc1cn([C@H]2C[C@H](N=[N+]=[N-])[C@@H](CO)O2)c(=O)[nH]c1=O` [AZT, zidovudine], in the series on HIV-1IIIB, the “EmaxAV (maximum antiviral effect %, CPE inhibition %)” value worked out at 83%. In the case of `Cc1ccnc2c1NC(=O)c1cccnc1N2C1CC1` [NVP, nevirapine], in series [1], the “EmaxC (maximum cytotoxic effect %)” value is on record as above 35%.
